Here are results for 15 compounds from US9714236B2, “Compounds and methods for inhibiting JAK” (AstraZeneca AB, priority 2015, dated 2017).

The structures appear in SMILES notation.

What all share (format): biochemical
Test [1] addresses recombinant JAK1 (amino acids 866-1154) (Homo sapiens (Human), UniProt P23458). Kind of test: Enzyme inhibition studies, JAK1 (peptide phosphorylation, Caliper LC3000). Particulars: ATP concentration not given (assayed at ATP Km 55 μM and at 5 mM). Put shortly:
(§1)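 N-terminal GST-tagged human kinase domains (JAK1 aa 866-1154; JAK3 aa 781-1124), insect-cell expressed, were assayed in 50 mM HEPES pH 7.3, 10 mM MgCl2, 1 mM DTT. Percent inhibition came from Caliper LC3000 separation of phosphorylated and unphosphorylated peptide.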

Test [2] has as its target recombinant JAK2 (amino acids 831-1132) (Homo sapiens (Human), UniProt O60674). Kind of test: Enzyme inhibition studies, JAK2 (peptide phosphorylation, Caliper LC3000). To be noted: ATP concentration of the tabulated values not stated (assayed at ATP Km 15 μM and at 5 mM).
The target of test [3] is recombinant JAK3 (amino acids 781-1124) (Homo sapiens (Human), UniProt P52333). Kind of test: Enzyme inhibition studies, JAK3 (peptide phosphorylation, Caliper LC3000). To be noted: ATP concentration of the tabulated values not stated (assayed at ATP Km 3 μM and at 5 mM). The essentials:
as §1

recombinant JAK1 (amino acids 866-1154), sequence (P23458 866-1154): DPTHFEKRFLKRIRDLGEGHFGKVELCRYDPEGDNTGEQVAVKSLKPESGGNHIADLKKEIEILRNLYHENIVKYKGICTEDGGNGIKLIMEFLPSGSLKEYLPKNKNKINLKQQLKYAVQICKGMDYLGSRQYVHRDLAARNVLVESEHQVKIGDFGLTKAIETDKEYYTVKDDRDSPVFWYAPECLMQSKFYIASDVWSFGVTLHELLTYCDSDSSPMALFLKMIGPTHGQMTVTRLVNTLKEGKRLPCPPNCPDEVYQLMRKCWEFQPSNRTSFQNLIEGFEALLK
recombinant JAK3 (amino acids 781-1124), sequence (P52333 781-1124): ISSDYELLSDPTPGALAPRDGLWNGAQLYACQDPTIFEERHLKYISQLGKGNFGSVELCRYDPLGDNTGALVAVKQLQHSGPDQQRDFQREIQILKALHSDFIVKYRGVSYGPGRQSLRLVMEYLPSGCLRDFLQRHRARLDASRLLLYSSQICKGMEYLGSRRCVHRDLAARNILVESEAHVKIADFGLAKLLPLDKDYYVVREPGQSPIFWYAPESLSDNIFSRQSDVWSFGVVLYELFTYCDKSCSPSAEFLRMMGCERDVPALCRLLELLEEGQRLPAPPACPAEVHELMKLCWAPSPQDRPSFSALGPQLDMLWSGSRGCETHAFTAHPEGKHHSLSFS
recombinant JAK2 (amino acids 831-1132), sequence (O60674 831-1132): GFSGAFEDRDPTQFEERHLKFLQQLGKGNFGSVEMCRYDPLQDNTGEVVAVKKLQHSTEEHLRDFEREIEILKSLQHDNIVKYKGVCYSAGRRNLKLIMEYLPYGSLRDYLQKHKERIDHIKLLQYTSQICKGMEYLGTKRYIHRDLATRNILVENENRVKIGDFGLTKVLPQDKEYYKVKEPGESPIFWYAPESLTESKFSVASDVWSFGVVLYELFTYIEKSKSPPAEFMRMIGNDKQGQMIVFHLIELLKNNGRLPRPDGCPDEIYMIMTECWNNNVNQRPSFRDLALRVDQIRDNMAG

Regarding `CC[C@H](C(=O)Nc1cccc2c(-c3ccnc(Nc4cn(C)nc4OC)n3)c[nH]c12)N1CCN(C)CC1` [Example 47, (2R)-N-(3-{2-[(3-Methoxy-1-methyl-1H-pyrazol-4-yl)amino]pyrimidin-4-yl}-1H-indol-7-yl)-2-(4-methylpiperazin-1-yl)butanamide], the IC50 (in general, the concentration that gives 50% inhibition) in test [1] was 0.013 µM; in test [2], 6.95 µM; in test [3] it was greater than 30 µM.
In the case of `CC[C@@H](C(=O)Nc1cccc2c(-c3ccnc(Nc4cn(C)nc4OC)n3)c[nH]c12)N1CCN(C)CC1` [Example 48, (2S)-N-(3-{2-[(3-Methoxy-1-methyl-1H-pyrazol-4-yl)amino]pyrimidin-4-yl}-1H-indol-7-yl)-2-(4-methylpiperazin-1-yl)butanamide], the IC50 in test [1] was 1.21 µM; in test [2], greater than 30 µM; in test [3] it was greater than 30 µM.
In the case of `CC[C@H](C(=O)Nc1cccc2c(-c3nc(Nc4cn(C)nc4C)ncc3F)c[nH]c12)N1CCN(C)CC1` [Example 49, (2R)-N-(3-{2-[(1,3-dimethyl-1H-pyrazol-4-yl)amino]-5-fluoropyrimidin-4-yl}-1H-indol-7-yl)-2-(4-methylpiperazin-1-yl)butanamide], the IC50 in test [1] was less than 0.004 µM; in test [2], 1.77 µM; in test [3], greater than 30 µM.
`CC[C@@H](C(=O)Nc1cccc2c(-c3nc(Nc4cn(C)nc4C)ncc3F)c[nH]c12)N1CCN(C)CC1` [Example 50, (2S)-N-(3-{2-[(1,3-dimethyl-1H-pyrazol-4-yl)amino]-5-fluoropyrimidin-4-yl}-1H-indol-7-yl)-2-(4-methylpiperazin-1-yl)butanamide]: the IC50 in test [1] is 0.265 µM; in test [2], 24.1 µM; in test [3] it was greater than 30 µM.
`COC[C@H](C(=O)Nc1cccc2c(-c3nc(Nc4cn(C)nc4C)ncc3F)c[nH]c12)N1CCN(C)CC1` [Example 53, (2R)-N-(3-{2-[(1,3-dimethyl-1H-pyrazol-4-yl)amino]-5-fluoropyimidin-4-yl}-1H-indol-7-yl)-3-methoxy-2-(4-methylpiperazin-1-yl)propanamide]: the IC50 in test [1] is less than 0.003 µM; in test [2], 0.322 µM; in test [3], greater than 30 µM.
Take `COC[C@@H](C(=O)Nc1cccc2c(-c3nc(Nc4cn(C)nc4C)ncc3F)c[nH]c12)N1CCN(C)CC1` [Example 54, (2S)-N-(3-{2-[(1,3-dimethyl-1H-pyrazol-4-yl)amino]-5-fluoropyrimidin-4-yl}-1H-indol-7-yl)-3-methoxy-2-(4-methylpiperazin-1-yl)propanamide]: the IC50 in test [1] is 1.67 µM; in test [2], greater than 30 µM; in test [3] it was greater than 30 µM.
`CCc1nn(C)cc1Nc1ncc(C)c(-c2c[nH]c3c(NC(=O)[C@@H](C)N4CCN(C)CC4)cccc23)n1` [Example 55, (2R)-N-(3-{2-[(3-ethyl-1-methyl-1H-pyrazol-4-yl)amino]-5-methylpyrimidin-4-yl}-1H-indol-7-yl)-2-(4-methylpiperazin-1-yl)propanamide]: the results for the IC50 in test [1], in test [2] and in test [3] were 0.027 µM, 4.22 µM and greater than 30 µM, respectively.
The matching figures for `Cc1nn(C)cc1Nc1ncc(F)c(-c2c[nH]c3c(NC(=O)[C@@H](C)N4CCN(C)CC4)cccc23)n1` [Example 56, (2R)-N-(3-{2-[(1,3-dimethyl-1H-pyrazol-4-yl)amino]-5-fluoropyrimidin-4-yl}-1H-indol-7-yl)-2-(4-methylpiperazin-1-yl)propanamide]: 0.028 µM, 5.15 µM and greater than 30 µM.
`Cc1nn(C)cc1Nc1nccc(-c2c[nH]c3c(NC(=O)[C@@H](C)N4CCN(C)CC4)cccc23)n1` [Example 57, (2R)-N-(3-{2-[(1,3-dimethyl-1H-pyrazol-4-yl)amino]pyrimidin-4-yl}-1H-indol-7-yl)-2-(4-methylpiperazin-1-yl)propanamide]: the IC50 was 0.069 µM in test [1], 9.26 µM in test [2] and greater than 30 µM in test [3].
The matching figures for `CCn1cc(Nc2ncc(C)c(-c3c[nH]c4c(NC(=O)[C@@H](C)N5CCN(C)CC5)cccc34)n2)c(OC)n1` [Example 58, (2R)-N-(3-{2-[(1-ethyl-3-methoxy-1H-pyrazol-4-yl)amino]-5-methylpyrimidin-4-yl}-1H-indol-7-yl)-2-(4-methylpiperazin-1-yl)propanamide]: 0.017 µM, 8.85 µM and greater than 30 µM.
Turning to `CCOc1nn(CC)cc1Nc1ncc(C)c(-c2c[nH]c3c(NC(=O)[C@@H](C)N4CCN(C)CC4)cccc23)n1` [Example 59, (2R)-N-(3-{2-[(3-ethoxy-1-ethyl-1H-pyrazol-4-yl)amino]-5-methylpyrimidin-4-yl}-1H-indol-7-yl)-2-(4-methylpiperazin-1-yl)propanamide], the IC50 is 0.069 µM in test [1], greater than 30 µM in test [2] and greater than 30 µM in test [3].
For `COC[C@H](C(=O)Nc1cccc2c(-c3ccnc(Nc4cn(C)nc4OC)n3)c[nH]c12)N1CCN(C)CC1` [Example 60, (2R)-3-Methoxy-N-(3-{2-[(3-methoxy-1-methyl-1H-pyrazol-4-yl)amino]pyrimidin-4-yl}-1H-indol-7-yl)-2-(4-methylpiperazin-1-yl)propanamide], the IC50 is 0.004 µM in test [1], 1.53 µM in test [2] and greater than 30 µM in test [3].
In the case of `COC[C@@H](C(=O)Nc1cccc2c(-c3ccnc(Nc4cn(C)nc4OC)n3)c[nH]c12)N1CCN(C)CC1` [Example 61, (2S)-3-Methoxy-N-(3-{2-[(3-methoxy-1-methyl-1H-pyrazol-4-yl)amino]pyrimidin-4-yl}-1H-indol-7-yl)-2-(4-methylpiperazin-1-yl)propanamide], the values for the IC50 in test [1], in test [2] and in test [3] were 2.9 µM, greater than 30 µM and greater than 30 µM, respectively.
On to `CCOc1nn(C)cc1Nc1ncc(C)c(-c2c[nH]c3c(NC(=O)[C@@H](CC)N4CCN(C)CC4)cccc23)n1` [Example 62, (2R)-N-(3-{2-[(3-ethoxy-1-methyl-1H-pyrazol-4-yl)amino]-5-methylpyrimidin-4-yl}-1H-indol-7-yl)-2-(4-methylpiperazin-1-yl)butanamide], for which the concentration for half-maximal inhibition (IC50) in test [1] was less than 0.006 µM; in test [2], 5.01 µM; in test [3], greater than 30 µM.
The corresponding values for `CCOc1nn(C)cc1Nc1ncc(C)c(-c2c[nH]c3c(NC(=O)[C@H](CC)N4CCN(C)CC4)cccc23)n1` [Example 63, (2S)-N-(3-{2-[(3-ethoxy-1-methyl-1H-pyrazol-4-yl)amino]-5-methylpyrimidin-4-yl}-1H-indol-7-yl)-2-(4-methylpiperazin-1-yl)butanamide] are 0.192 µM, greater than 30 µM and greater than 30 µM.
